Assay [1] concerns the target T1, His-His-USP7 (aa208-560, |C315A|) (Homo sapiens, UniProt Q93009, C315A).
T1 construct: His-His-USP7 (aa208-560, |C315A|); His-His (N)
In words: Evaluation of the inhibition of USP7 by the Fluorescence Intensity (FLINT) readings. The assay is classed as biochemical. The following applies: 0.25 nM His-His-USP7, compound incubated 60 minutes at 30° C., 500 nM Ubiquitin-Rhodamine-110 substrate; 50% reduction in kinetic rate. In short, it runs like this: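 0.25 nM His-His-USP7 (aa208–560, C315A) preincubated 60 min at 30 °C with compound in 100 mM Bicine pH 8.0, 0.01% Triton X-100, 1 mM TCEP, 10% DMSO. Reaction started with 500 nM ubiquitin-rhodamine-110 and fluorescence (Ex485/Em535) read every 3 min for 21 min. IC50 derived from kinetic-rate reduction over an 11-point curve, 4-parameter fit.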

Assay [2] has as its system Z138 mantle cell lymphoma tumour cell lines. In words: In vitro cytotoxicity, MTT assay. The following applies: Homo sapiens, Z-138, 96 h, Z138 cells exposed to the test compounds for 96 hours; cell viability vs DMSO treated cells. The assay is classed as cell-based. The protocol:
The cytotoxicity studies were evaluated by MTT [3-(4,5-dimethylthiazol-2-yl)-2,5-diphenyltetrazolium bromide] assay and carried out on Z138 mantle cell lymphoma tumour cell lines. The cells are distributed onto microplates and exposed to the test compounds for 96 hours. MTT is then added for 4 hours and converted by NAD(P)H-dependent cellular oxidoreductase enzymes in formazan, which has a purple color. The viable cell number is proportional to the production of formuan salts and cell viability can be quantified by the absorbance of the solution at 540 nm with a speetrophotometer (Carmichael et al., Cancer Res. 1987, 47, 936-942).

Each structure is given as a SMILES string. Counter-ions that a name gives are not always drawn.

T1 sequence (Q93009 208-560 C315A): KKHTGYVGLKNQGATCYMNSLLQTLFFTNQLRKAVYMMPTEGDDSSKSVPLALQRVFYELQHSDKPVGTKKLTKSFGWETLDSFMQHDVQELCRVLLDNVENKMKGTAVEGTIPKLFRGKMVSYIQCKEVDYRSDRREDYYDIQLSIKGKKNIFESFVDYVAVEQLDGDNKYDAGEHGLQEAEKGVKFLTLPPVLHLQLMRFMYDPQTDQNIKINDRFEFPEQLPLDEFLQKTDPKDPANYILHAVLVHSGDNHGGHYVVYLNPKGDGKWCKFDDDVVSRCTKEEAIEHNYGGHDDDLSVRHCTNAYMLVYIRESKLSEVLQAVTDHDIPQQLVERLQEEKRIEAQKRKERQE

For the compound `N#Cc1ccc(Oc2ncn(CC3(O)CCN(C(=O)[C@@H]4CCC(F)(F)C[C@H]4c4ccccc4)CC3)c(=O)c2N)cc1` [Example 24, 4-{[5-amino-1-({1-[(1R,2R)-4,4-difluoro-2-phenylcyclohexane-1-carbonyl]-4-hydroxypiperidin-4-yl}methyl)-6-oxo-1,6-dihydropyrimidin-4-yl]oxy}benzonitrile], the half-inhibitory concentration (IC50) in assay [1] was determined as 30 nM; in assay [2] it was 0.165 µM.

Regarding `Nc1c(Oc2ccc3c(c2)CNCC3)ncn(CC2(O)CCN(C(=O)[C@@H]3CCC(F)(F)C[C@H]3c3ccccc3)CC2)c1=O` [Example 26, 5-amino-3-({1-[(1R,2R)-4,4-difluoro-2-phenylcyclohexane-1-carbonyl]-4-hydroxypiperidin-4-yl}methyl)-6-[(1,2,3,4-tetrahydroisoquinolin-7-yl)oxy]pyrimidin-4(3H)-one, hydrochloride], the IC50 was 20 nM in assay [1] and 0.406 µM in assay [2].

Turning to `Nc1c(Oc2cccc(CO)c2)ncn(CC2(O)CCN(C(=O)[C@@H]3CCC(F)(F)C[C@H]3c3ccccc3)CC2)c1=O` [Example 28, 5-amino-3-({1-[(1R,2R)-4,4-difluoro-2-phenylcyclohexane-1-carbonyl]-4-hydroxypiperidin-4-yl}methyl)-6-[3-(hydroxymethyl)phenoxy]pyrimidin-4(3H)-one], the figures for the IC50 in assay [1] and in assay [2] were 53 nM and 0.052 µM, respectively.

Consider `Nc1c(Oc2ccc3c(c2)CCNC3)ncn(CC2(O)CCN(C(=O)[C@@H]3CCC(F)(F)C[C@H]3c3ccccc3)CC2)c1=O` [Example 31, 5-amino-3-({1-[(1R,2R)-4,4-difluoro-2-phenylcyclohexane-1-carbonyl]-4-hydroxypiperidin-4-yl}methyl)-6-[(1,2,3,4-tetrahydroisoquinolin-6-yl)oxy]pyrimidin-4(3H)-one], for which the half-maximal inhibitory concentration (IC50) was found to be 47 nM in assay [1] and 0.648 µM in assay [2].

Consider `Nc1c(Oc2ccc3c(c2)CNC3)ncn(CC2(O)CCN(C(=O)[C@@H]3CCC(F)(F)C[C@H]3c3ccccc3)CC2)c1=O` [Example 32, 5-amino-3-({1-[(1R,2R)-4,4-difluoro-2-phenylcyclohexane-1-carbonyl]-4-hydroxypiperidin-4-yl}methyl)-6-[(2,3-dihydro-1H-isoindol-5-yl)oxy]pyrimidin-4(3H)-one], for which the values for the half-inhibitory concentration (IC50) in assay [1] and in assay [2] were 32 nM and 0.896 µM, respectively.

As for `Nc1c(Oc2ccc(OCCO)cc2)ncn(CC2(O)CCN(C(=O)[C@@H]3CCC(F)(F)C[C@H]3c3ccccc3)CC2)c1=O` [Example 33, 5-amino-3-({1-[(1R,2R)-4,4-difluoro-2-phenylcyclohexane-1-carbonyl]-4-hydroxypiperidin-4-yl}methyl)-6-[4-(2-hydroxyethoxy)phenoxy]pyrimidin-4(3H)-one], the IC50 in assay [1] amounted to 45.9 nM; in assay [2], 0.0646 µM.

Consider `Nc1c(Oc2ccc(C3CCCN3)cc2)ncn(CC2(O)CCN(C(=O)[C@@H]3CCC(F)(F)C[C@H]3c3ccccc3)CC2)c1=O` (stereo partly drawn) [Example 34, 5-amino-3({1-[(1R,2R)-4,4-difluoro-2-phenylcyclohexane-1-carbonyl]-4-hydroxypiperidin-4-yl}methyl)-6-[4-(pyrrolidin-2-yl)phenoxy]pyrimidin-4(3H)-one], for which the 50% inhibitory concentration (IC50) in assay [1] was 10.8 nM; in assay [2] it was 0.52 µM.

Consider `Nc1c(Oc2ccc3cn[nH]c3c2)ncn(CC2(O)CCN(C(=O)[C@@H]3CCC(F)(F)C[C@H]3c3ccccc3)CC2)c1=O` [Example 35, 5-amino-3-({1-[(1R,2R)-4,4-difluoro-2-phenylcyclohexane-1-carbonyl]-4-hydroypiperidin-4-yl}methyl)-6-[(1H-indazol-6-yl)oxy]pyrimidin-4(3H)-one], for which the IC50 in assay [1] came to 34.2 nM; in assay [2], 0.081 µM.

Turning to `Nc1c(Oc2ccc(CCO)cc2)ncn(CC2(O)CCN(C(=O)[C@@H]3CCC(F)(F)C[C@H]3c3ccccc3)CC2)c1=O` [Example 36, 5-amino-3-({1-[(1R,2R)-4,4-difluoro-2-phenylcyclohexane-1-carbonyl]-4-hydroxypiperidin-4-}methyl)-6-[4-(2-hydroxyethyl)phenoxy]pyrimdin-4(3H)-one], the half-inhibitory concentration (IC50) in assay [1] was found to be 29 nM; in assay [2] it was 0.035 µM.

For `Nc1c(Oc2ccc(CC(F)F)cc2)ncn(CC2(O)CCN(C(=O)[C@@H]3CCC(F)(F)C[C@H]3c3ccccc3)CC2)c1=O` [Example 38, 5-amino-6-[4-(2,2-difluoroethyl)phenoxy]-3-({1-[(1R,2R)-4,4-difluoro-2-phenylcyclohexane-1-carbonyl]-4-hydroxypiperidin-4-yl}methyl)pyrimidin-4(3H)-one], the IC50 in assay [1] was 63.9 nM; in assay [2], 0.128 µM.

As for `Nc1c(Oc2ccc(F)c(O)c2)ncn(CC2(O)CCN(C(=O)[C@@H]3CCC(F)(F)C[C@H]3c3ccccc3)CC2)c1=O` [Example 41, 5-amino-3-({1-[(1R,2R)-4,4-difluoro-2-phenylcyclohexane-1-carbonyl]-4-hydroxypiperidin-4-yl}methyl)-6-(4-fluoro-3-hydroxyphenoxy)pyrimidin-4(3H)-one], the IC50 in assay [1] is 42 nM; in assay [2], 0.0096 µM.

Take `CCc1cc(Oc2ncn(CC3(O)CCN(C(=O)[C@@H]4CCC(F)(F)C[C@H]4c4ccccc4)CC3)c(=O)c2N)ccc1Cl` [Example 42, 5-amino-6-(4-chloro-3-ethylphenoxy)-3-({1-[(1R,2R)-4,4-difluoro-2-phenylcyclohexane-1-carbonyl]-4-hydroxypiperidin-4-yl}methyl)pyrimidin-4(3H)-one]: the IC50 in assay [1] was 89.7 nM; in assay [2], 0.169 µM.

Regarding `Nc1c(Oc2ccc(C=O)cc2)ncn(CC2(O)CCN(C(=O)[C@@H]3CCC(F)(F)C[C@H]3c3ccccc3)CC2)c1=O` [Example 44], the IC50 in assay [1] turned out to be 38.7 nM; in assay [2], 0.0736 µM.

For the compound `Nc1c(Oc2ccc(F)cc2)ncn(CC2(O)CCN(C(=O)[C@@H]3CCC(F)(F)C[C@H]3c3ccccc3)CC2(F)F)c1=O` (stereo partly drawn) [Example 45, 5-amino-3-({1-[(1R,2R)-4,4-difluoro-2-phenylcyclohexane-1-carbonyl]-3,3-difluoro-4-hydroxypiperidin-4-yl}methyl)-6-(4-fluorophenoxy)pyrimidin-4(3H)-one], the IC50 is 57 nM in assay [1] and 0.115 µM in assay [2].

For `Nc1c(Oc2ccc3c(c2)CC(O)C3)ncn(CC2(O)CCN(C(=O)[C@@H]3CCC(F)(F)C[C@H]3c3ccccc3)CC2)c1=O` (stereo partly drawn) [Example 48, 5-amino-3-({1-[(1R,2R)-4,4-difluoro-2-phenylcyclohexane-1-carbonyl]-4-hydroxypiperidin-4-yl}methyl)-6-[(2-hydroxy-2,3-dihydro-1H-inden-5-yl)oxy]pyrimidin-4(3H)-one], the concentration for half-maximal inhibition (IC50) in assay [1] is 62 nM; in assay [2], 0.072 µM.

Consider `CCC(N)c1ccc(Oc2ncn(CC3(O)CCN(C(=O)[C@@H]4CCC(F)(F)C[C@H]4c4ccccc4)CC3)c(=O)c2N)cc1` (stereo partly drawn) [Example 56, 5-amino-6-[4-(1-aminopropyl)phenoxy]-3-({1-[(1R,2R)-4,4-difluoro-2-phenylcyclohexane-1-carbonyl]-4-hydroxypiperidin-4-yl}methyl)pyrimidin-4(3H)-one], for which the IC50 in assay [1] stood at 15 nM; in assay [2] it was 0.539 µM.

On to `NCc1ccc(Oc2ncn(CC3(O)CCN(C(=O)[C@@H]4CCC(F)(F)C[C@H]4c4ccccc4)CC3)c(=O)c2N)cc1` [Example 59, 5-amino-6-[4-(aminomethyl)phenoxy]-3-({1-[(1R,2R)-4,4-difluoro-2-phenylcyclohexane-1-carbonyl]-4-hydroxypiperidin-4-yl}methyl)pyrimidin-4(3H)-one], for which the figures for the IC50 in assay [1] and in assay [2] were 4.2 nM and 0.064 µM, respectively.

For `NCc1cccc(Oc2ncn(CC3(O)CCN(C(=O)[C@@H]4CCC(F)(F)C[C@H]4c4ccccc4)CC3)c(=O)c2N)c1` [Example 61, 5-amino-6-[3-(aminomethyl)phenoxy]-3-({1-[(1R,2R)-4,4-difluoro-2-phenylcyclohexane-1-carbonyl]-4-hydroxypiperidin-4-hydroxypiperidin-4-yl}methyl)pyrimidin-4(3H)-one], the IC50 is 9.8 nM in assay [1] and 0.028 µM in assay [2].

Regarding `Nc1c(Oc2cccc(O)c2)ncn(CC2(O)CCN(C(=O)[C@@H]3CCC(F)(F)C[C@H]3c3ccccc3)CC2)c1=O` [Example 64, 5-amino-3-({1-[(1R,2R)-4,4-difluoro-2-phenylcyclohexnne-1-carbonyl]-4-hydroxypiperidin-4-yl}methyl)-6-(3-hydroxyphenoxy)pyrimidin-4(3H)-one], the results for the IC50 in assay [1] and in assay [2] were 21 nM and 0.014 µM, respectively.

`NCc1ccc(Oc2ncn(CC3(O)CCN(C(=O)[C@@H]4CCC(F)(F)C[C@H]4c4ccccc4)CC3)c(=O)c2N)cc1F` [Example 65, 5-amino-6-[4-(aminomethyl)-3-fluorophenoxy]-3-({1-[(1R,2R)-4,4-difluoro-2-phenylcyclohexane-1-carbonyl]-4-hydroxypiperidin-4-yl}methyl)pyrimidin-4(3H)-one]: the figures for the concentration for half-maximal inhibition (IC50) in assay [1] and in assay [2] were 10 nM and 0.386 µM, respectively.

Take `NCc1ccc(Oc2ncn(CC3(O)CCN(C(=O)[C@@H]4CCC(F)(F)C[C@H]4c4ccccc4)CC3)c(=O)c2N)cc1Cl` [Example 66, 5-amino-6-[4-(aminomethyl)-3-chlorophenoxy]-3-({1-[(1R,2R)-4,4-difluoro-2-phenylcyclohexane-1-carbonyl]-4-hydroxypiperidin-4-yl}methyl)pyrimidin-4(3H)-one]: the half-inhibitory concentration (IC50) in assay [1] worked out at 11 nM; in assay [2], 0.301 µM.

Values taken from patent publication US20210221785A1, “AMINO-PYRIMIDONYL DERIVATIVES, A PROCESS FOR THEIR PREPARATION AND PHARMACEUTICAL COMPOSITIONS CONTAINING THEM” (LES LABORATOIRES SERVIER, priority 2018, published 2021).
